Experimental data taken from patent US5110904A (Abbott Laboratories, priority 1990, dated 1992).
Non-standard residues stand in square brackets, D forms with d. Residues, ends and D or L forms follow the SMILES beside them. *: point of attachment. dPhe(4-Cl) = N[C@H](Cc1ccc(Cl)cc1)C(=O)O; 1Nal = N[C@@H](Cc1cccc2ccccc12)C(=O)O; d1Nal = N[C@H](Cc1cccc2ccccc12)C(=O)O; Lys(iPr) = CC(C)NCCCC[C@H](N)C(=O)O; NMeY = CN[C@@H](Cc1ccc(O)cc1)C(=O)O; NMeF = CN[C@@H](Cc1ccccc1)C(=O)O; d3Pal = N[C@H](Cc1cccnc1)C(=O)O; Cha = N[C@@H](CC1CCCCC1)C(=O)O; d2Thi = N[C@H](Cc1cccs1)C(=O)O; NMeL = CN[C@@H](CC(C)C)C(=O)O; pGlu = O=C1CC[C@@H](C(=O)O)N1; Nicotinoyl = O=C(c1cccnc1)*; NMeS = CN[C@@H](CO)C(=O)O; Sar = CNCC(=O)O

target: T1, LHRH receptors (Rattus norvegicus, UniProt P30969); assay: Radioligand receptor binding assay, rat pituitary membranes; conditions: radioiodinated [D-Leu6-des Gly10]-LHRH ethyl amide 50 pM, 2 hours at 4° C., read-out: Receptor Binding pkI (converted)
T1 sequence (P30969 1-327): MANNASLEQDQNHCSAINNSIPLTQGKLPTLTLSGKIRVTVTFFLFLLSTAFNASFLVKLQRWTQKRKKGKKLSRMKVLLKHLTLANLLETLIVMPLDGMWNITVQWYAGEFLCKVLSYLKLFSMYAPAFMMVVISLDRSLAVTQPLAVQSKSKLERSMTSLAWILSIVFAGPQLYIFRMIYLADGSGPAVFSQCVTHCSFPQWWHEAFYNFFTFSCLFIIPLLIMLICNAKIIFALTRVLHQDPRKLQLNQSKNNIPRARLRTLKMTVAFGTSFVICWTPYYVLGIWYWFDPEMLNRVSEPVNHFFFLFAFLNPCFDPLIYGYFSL
Protocol: The radioligand (50 pM), receptors, and compounds to be tested are coincubated for 2 hours at 4° C. Bound ligand is separated from free ligand via centrifugation and aspiration.

SMILES | Ki [nM]
CC(=O)N[C@H](Cc1ccc(Cl)cc1)C(=O)N[C@H](Cc1ccc(Cl)cc1)C(=O)N[C@H](Cc1cccs1)C(=O)N[C@@H](CO)C(=O)N(C)[C@@H](Cc1ccc(O)cc1)C(=O)N[C@H](CCCCN)C(=O)N[C@@H](CC(C)C)C(=O)N[C@@H](CCCNC(=N)N)C(=O)N1CCC[C@H]1C(=O)N[C@H](C)C(N)=O [Ex. 39, N-Ac-D-4-Cl-Phe-D-4-Cl-Phe-D-2-Thia-Ser-N-Me-Tyr-D-Lys-Leu-Arg-Pro-D-AlaNH2] (Ac-[dPhe(4-Cl)][dPhe(4-Cl)][d2Thi]S[NMeY][dK]LRP[dA]-NH2) | 0.0355
CC(=O)NCC(=O)N[C@H](Cc1ccc(Cl)cc1)C(=O)N[C@H](Cc1cccnc1)C(=O)N[C@@H](CO)C(=O)N(C)[C@@H](Cc1ccc(O)cc1)C(=O)N[C@H](CCCCNC(=O)c1cccnc1)C(=O)N[C@@H](CC(C)C)C(=O)N[C@@H](CCCCNC(C)C)C(=O)N1CCC[C@H]1C(=O)N[C@H](C)C(N)=O [Ex. 42, N-Ac-Gly-D-4-Cl-Phe-D-3-Pal-Ser-N-Me-Tyr-D-Lys-(N-epsilon-nicotinyl)-Leu-Lys(N-epsilon-isopropyl)-Pro-D-AlaNH2] (Ac-G[dPhe(4-Cl)][d3Pal]S[NMeY][dK](Nicotinoyl)L[Lys(iPr)]P[dA]-NH2) | 0.603
CC(=O)N[C@H](Cc1ccc(Cl)cc1)C(=O)N[C@H](Cc1ccc(Cl)cc1)C(=O)N[C@H](Cc1cccs1)C(=O)N[C@@H](CO)C(=O)N(C)[C@@H](Cc1ccc(O)cc1)C(=O)N[C@H](CCCCN)C(=O)N(C)[C@@H](CC(C)C)C(=O)N[C@@H](CCCNC(=N)N)C(=O)N1CCC[C@H]1C(=O)N[C@H](C)C(N)=O [Ex. 45, N-Ac-D-4-Cl-Phe-D-4-Cl-Phe-D-2-Thia-Ser-N-Me-Tyr-D-Lys-N-Me-Leu-Arg-Pro-D-AlaNH4] (Ac-[dPhe(4-Cl)][dPhe(4-Cl)][d2Thi]S[NMeY][dK][NMeL]RP[dA]-NH2) | 0.0138
CC(=O)N[C@H](Cc1ccc(Cl)cc1)C(=O)N[C@H](Cc1ccc(Cl)cc1)C(=O)N[C@H](Cc1cccc2ccccc12)C(=O)N[C@@H](CO)C(=O)N(C)[C@@H](Cc1ccc(O)cc1)C(=O)N[C@H](CCCCN)C(=O)N[C@@H](CC1CCCCC1)C(=O)N[C@@H](CCCNC(=N)N)C(=O)N1CCC[C@H]1C(=O)N[C@H](C)C(N)=O [Ex. 47, N-Ac-D-4-Cl-Phe-D-4-Cl-Phe-D-1-Nal-Ser-N-Me-Tyr-D-Lys-Cha-Arg-Pro-D-AlaNH2] (Ac-[dPhe(4-Cl)][dPhe(4-Cl)][d1Nal]S[NMeY][dK][Cha]RP[dA]-NH2) | 0.038
CC(=O)N(C)CC(=O)N[C@H](Cc1ccc(Cl)cc1)C(=O)N[C@H](Cc1cccs1)C(=O)N[C@@H](CO)C(=O)N(C)[C@@H](Cc1ccc(O)cc1)C(=O)N[C@H](CCCCN)C(=O)N[C@@H](CC(C)C)C(=O)N[C@@H](CCCNC(=N)N)C(=O)N1CCC[C@H]1C(=O)N[C@H](C)C(N)=O [Ex. 49, N-Ac-Sar-D-4-Cl-Phe-D-2-Thia-Ser-N-Me-Tyr-D-Lys-Leu-Arg-Pro-D-AlaNH2] (Ac-[Sar][dPhe(4-Cl)][d2Thi]S[NMeY][dK]LRP[dA]-NH2) | 0.0316
CC(=O)N(C)CC(=O)N[C@H](Cc1ccc(Cl)cc1)C(=O)N[C@H](Cc1cccc2ccccc12)C(=O)N[C@@H](CO)C(=O)N(C)[C@@H](Cc1ccc(O)cc1)C(=O)N[C@H](Cc1cccnc1)C(=O)N[C@@H](CC(C)C)C(=O)N[C@@H](CCCNC(=N)N)C(=O)N1CCC[C@H]1C(=O)N[C@H](C)C(N)=O [Ex. 50, N-Ac-Sar-D-4-Cl-Phe-D-1-Nal-Ser-N-Me-Tyr-D-3-Pal-Leu-Arg-Pro-D-AlaNH4] (Ac-[Sar][dPhe(4-Cl)][d1Nal]S[NMeY][d3Pal]LRP[dA]-NH2) | 0.0138
CC(=O)N(C)CC(=O)N[C@H](Cc1ccc(Cl)cc1)C(=O)N[C@H](Cc1cccc2ccccc12)C(=O)N[C@@H](CO)C(=O)N(C)[C@@H](Cc1ccc(O)cc1)C(=O)N[C@H](CCCCNC(=O)c1cccnc1)C(=O)N[C@@H](CC(C)C)C(=O)N[C@@H](CCCNC(=N)N)C(=O)N1CCC[C@H]1C(=O)N[C@H](C)C(N)=O [Ex. 51, N-Ac-Sar-D-4-Cl-Phe-D-1-Nal-Ser-N-Me-Tyr-D-Tys(N-epsilon-nicotinyl)-Leu-Arg-Pro-D-AlaNH2] (Ac-[Sar][dPhe(4-Cl)][d1Nal]S[NMeY][dK](Nicotinoyl)LRP[dA]-NH2) | 0.0269
CC(=O)N(C)CC(=O)N[C@H](Cc1ccc(Cl)cc1)C(=O)N[C@@H](Cc1cccc2ccccc12)C(=O)N[C@@H](CO)C(=O)N(C)[C@@H](Cc1ccc(O)cc1)C(=O)N[C@H](CCCCN)C(=O)N[C@@H](CC(C)C)C(=O)N[C@@H](CCCNC(=N)N)C(=O)N1CCC[C@H]1C(=O)N[C@H](C)C(N)=O [Ex. 52, N-Ac-Sar-D-4-Cl-Phe-1-Nal-Ser-N-Me-Tyr-D-Lys-Leu-Arg-Pro-D-AlaNH4] (Ac-[Sar][dPhe(4-Cl)][1Nal]S[NMeY][dK]LRP[dA]-NH2) | 0.017

Results, then the compound that gave them:

Ki [nM] | SMILES
1.17 | CCNC(=O)[C@@H]1CCCN1C(=O)[C@H](CCCN=C(N)N)NC(=O)[C@H](CC(C)C)NC(=O)[C@@H](CC(C)C)NC(=O)[C@H](Cc1ccc(O)cc1)NC(=O)[C@H](CO)N(C)C(=O)[C@H](Cc1c[nH]c2ccccc12)NC(=O)[C@H](Cc1c[nH]cn1)NC(=O)[C@@H]1CCC(=O)N1 [Ex. 1, (pyro)Glu-His-Trp-N-Me-Ser-Tyr-D-Leu-Leu-Arg-Pro-NHEt] ([pGlu]HW[NMeS]Y[dL]LRP-NHEt)
0.038 | CCNC(=O)[C@@H]1CCCN1C(=O)[C@H](CCCN=C(N)N)NC(=O)[C@H](CC(C)C)NC(=O)[C@@H](Cc1c[nH]c2ccccc12)NC(=O)[C@H](Cc1ccc(O)cc1)NC(=O)[C@H](CO)NC(=O)[C@H](Cc1c[nH]c2ccccc12)NC(=O)[C@H](Cc1ccccc1)N(C)C(=O)[C@@H]1CCC(=O)N1 [Ex. 19, (pyro)Glu-N-Me-Phe-Trp-Ser-Tyr-D-Trp-Leu-Arg-ProNHEt] ([pGlu][NMeF]WSY[dW]LRP-NHEt)
0.0562 | CCNC(=O)[C@@H]1CCCN1C(=O)[C@H](CCCN=C(N)N)N(C)C(=O)[C@H](CC(C)C)NC(=O)[C@@H](Cc1c[nH]c2ccccc12)NC(=O)[C@H](Cc1ccc(O)cc1)NC(=O)[C@H](CO)NC(=O)[C@H](Cc1c[nH]c2ccccc12)NC(=O)[C@H](Cc1cnc[nH]1)NC(=O)[C@@H]1CCC(=O)N1 [Ex. 23, (pyro)Glu-His-Trp-Ser-Tyr-D-Trp-Leu-N-Me-Arg-ProNHEt]
0.01 | CC(=O)N(C)CC(=O)N[C@H](Cc1ccc(Cl)cc1)C(=O)N[C@H](Cc1cccc2ccccc12)C(=O)N[C@@H](CO)C(=O)N(C)[C@@H](Cc1ccc(O)cc1)C(=O)N[C@H](CCCCN)C(=O)N[C@@H](CC(C)C)C(=O)N[C@@H](CCCNC(=N)N)C(=O)N1CCC[C@H]1C(=O)N[C@H](C)C(N)=O [Ex. 48, N-Ac-Sar-D-4-Cl-Phe-D-1-Nal-Ser-N-Me-Tyr-D-Lys-Leu-Arg-Pro-D-AlaNH2] (Ac-[Sar][dPhe(4-Cl)][d1Nal]S[NMeY][dK]LRP[dA]-NH2)
0.0132 | CC(=O)NCC(=O)N[C@H](Cc1ccc(Cl)cc1)C(=O)N[C@H](Cc1cccc2ccccc12)C(=O)N[C@@H](CO)C(=O)N(C)[C@@H](Cc1ccc(O)cc1)C(=O)N[C@H](CCCCN)C(=O)N[C@@H](CC(C)C)C(=O)N[C@@H](CCCNC(=N)N)C(=O)N1CCC[C@H]1C(=O)N[C@H](C)C(N)=O [Ex. 53, N-Ac-Gly-D-4-Cl-Phe-D-1-Nal-Ser-N-Me-Tyr-D-Lys-Leu-Arg-Pro-D-AlaNH2] (Ac-G[dPhe(4-Cl)][d1Nal]S[NMeY][dK]LRP[dA]-NH2)
